≈ marks a conversion by molar mass, not a printed value. Where “and” joins values, the source holds several entries; their conditions need not be identical. Equal values may be shown once.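 Where inhibition never reached the appropriate level, the endpoint shown equals the highest concentration tested. Otherwise, values were interpolated linearly from a five-concentration, 48-hour dose response in 96-well plates. At the GI50, growth is halved. TGI marks complete inhibition of growth.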
Key:
Test in all cases: NCI-60 cell line screen, 48 h
786-0 renal = test system: 786-0 renal
ACHN renal = test system: ACHN renal
HCC-2998 colon = test system: HCC-2998 colon
HOP-62 NSCLC = test system: HOP-62 NSCLC
MCF7 breast = test system: MCF7 breast
RXF 393 renal = test system: RXF 393 renal
SK-MEL-28 melanoma = test system: SK-MEL-28 melanoma
SK-MEL-5 melanoma = test system: SK-MEL-5 melanoma
SNB-75 CNS = test system: SNB-75 CNS
SR leukemia = test system: SR leukemia
UACC-257 melanoma = test system: UACC-257 melanoma

| Structure (SMILES) | TGI (786-0 renal) | TGI (ACHN renal) | TGI (HCC-2998 colon) | TGI (HOP-62 NSCLC) | TGI (MCF7 breast) | TGI (RXF 393 renal) | TGI (SK-MEL-28 melanoma) | TGI (SK-MEL-5 melanoma) | TGI (SNB-75 CNS) | TGI (SR leukemia) | TGI (UACC-257 melanoma) | GI50 (RXF 393 renal) | GI50 (SNB-75 CNS) |
| --- | --- | --- | --- | --- | --- | --- | --- | --- | --- | --- | --- | --- | --- |
| CC1=C(C)SC(=C2Sc3nc(O)[nH]c(=O)c3S2)S1 | > 100 µM | > 100 µM | > 100 µM | > 100 µM | > 100 µM | > 100 µM | > 100 µM | > 100 µM | > 100 µM | 79.9 µM | > 100 µM | – | – |
| ON=C(CC(O)(C(F)(F)Cl)C(F)(F)Cl)CC(O)(C(F)(F)Cl)C(F)(F)Cl | > 10 µM | > 10 µM | > 10 µM | 9.78 µM | > 10 µM | 7.79 µM | > 10 µM | > 10 µM | > 10 µM | > 10 µM | > 10 µM | – | – |
| CSc1nc2c(c(=O)[nH]1)N=C(c1ccccc1)CC(c1ccccc1)N2 (centres undefined) | > 100 µM | 75.3 µM | > 100 µM | > 100 µM | 36 µM | 79.6 µM | > 100 µM | 88.4 µM | 44.6 µM | > 100 µM | > 100 µM | – | – |
| O=C1CC(=O)NC(=NNS(=O)(=O)c2ccc(Cl)cc2)N1 | > 100 µM | > 100 µM | > 100 µM | > 100 µM | > 100 µM | > 100 µM | > 100 µM | > 100 µM | > 100 µM | > 100 µM | > 100 µM | – | – |
| O=C(c1cc2c(c3ccccc13)NC1(CCCCC1)N=C2C(F)(F)F)C(F)(F)F | 14.1 µM | 13.8 µM | 10.4 µM | > 100 µM | 12.2 µM | 12.7 µM | 22.6 µM | 18.2 µM | 19.1 µM | 13.2 µM | 11.3 µM | – | – |
| Cc1ccc(C(=O)N/N=C(\N=Nc2ccc(C(=O)O)cc2)c2ccc(N(CCC#N)CCC#N)cc2C)cc1 | > 100 µM | > 100 µM | > 100 µM | > 100 µM | > 100 µM | > 100 µM | > 100 µM | > 100 µM | > 100 µM | > 100 µM | > 100 µM | – | – |
| COc1cc2c(c(OC)c1OC)-c1ccc(SC)cc1C(O)CC2 (centres undefined) | > 100 µM | > 100 µM and 97.9 µg/mL | 18.3 µM | – | > 100 µM and 36.1 µg/mL | – | > 100 µM | 1.11 µM and 15.1 µg/mL | 34.7 µM | 34.7 µg/mL | 32.8 µg/mL | 16.2 µg/mL (≈ 46.7 µM) | 43.5 µg/mL (≈ 126 µM) |
| Cc1nc2sccn2c1/C=C1/C(=O)Nc2cccc(Cl)c21 | > 100 µM | > 100 µM | > 100 µM | > 100 µM | > 100 µM | > 100 µM | > 100 µM | > 100 µM | > 100 µM | > 100 µM | > 100 µM | – | – |
| CCOC(=O)NN(C(=O)OCC)c1c(C)cc(C)cc1C | > 100 µM | – | > 100 µM | – | > 100 µM | > 100 µM | > 100 µM | > 100 µM | > 100 µM | > 100 µM | > 100 µM | – | – |
| CN(C)Cc1cc(N=Nc2ccc(Cl)cc2)cc(CN(C)C)c1O | 17.9 µM | 19 µM | 23.6 µM | 14.6 µM | 21.3 µM | 25.1 µM | 23.9 µM | 21.1 µM | 25.8 µM | 22.8 µM | 31.5 µM | – | – |
| COC(=O)/C=C1/OC(c2ccc(OC)cc2)=C(Cl)C1=O | 24.4 µM | 31.8 µM | 41.1 µM | 39.2 µM | 25 µM | 31.7 µM | 32.6 µM | 27.2 µM | 37.3 µM | 9.53 µM | 49.6 µM | – | – |
| CCOC(=O)c1nc2ccc(C(F)(F)F)cc2nc1Oc1ccc(C(=O)OC)cc1 | > 100 µM | > 100 µM | > 100 µM | 74.8 µM | > 100 µM | > 100 µM | > 100 µM | > 100 µM | > 100 µM | > 100 µM | > 100 µM | – | – |
| Cc1[nH]c(=O)nc(NNCc2ccc(Cl)cc2)c1C(=O)Nc1ccc(Cl)cc1 | > 100 µM | – | > 100 µM | > 100 µM | > 100 µM | > 100 µM | > 100 µM | > 100 µM | > 100 µM | > 100 µM | > 100 µM | – | – |
| Cc1cnc2sn(-c3ccc(Br)cc3)c(=O)c2c1 | > 100 µM | > 100 µM | > 100 µM | 81.5 µM | > 100 µM | – | > 100 µM | > 100 µM | > 100 µM | > 100 µM | > 100 µM | – | – |
| OC1CSc2nc3ccccc3n2C1 (centres undefined) | > 100 µM | > 100 µM | > 100 µM | – | > 100 µM | > 100 µM | – | > 100 µM | 44.8 µM | > 100 µM | > 100 µM | – | – |

— PubChem BioAssay (NCI)
